Values quoted from earlier work as cited in patent US20070172525A1, “Anti-diabetic combinations” (priority 2007, published 2007).

Tests used:
[1] = oral
patients with T2DM [2] = tested on: patients with T2DM
patients with T2DM [3] = tested on: patients with T2DM; remark: listed apart in the source
patients with T2DM [4] = tested on: patients with T2DM; remark: listed apart in the source
[5] = monotherapy, 100 or 200 mg daily
[6] = sitagliptin 100 mg daily added to metformin

| Time to complete gastrointestinal absorption after ingestion [1] | SMILES | Weight gain (patients with T2DM [2]; 24-week monotherapy studies) | HbA1C (patients with T2DM [2]; [5]) | Hypoglycemia (patients with T2DM [2]; [5]) | Patients achieving a HbA1C of <7% (patients with T2DM [3]; sitagliptin 100 mg daily added to at least 1,500 mg per day of metformin, mean HbA1C of 8%) | Fasting glucose (patients with T2DM [3]; [6]) | Mean placebo-subtracted reduction in HbA1C (patients with T2DM [3]; [6]) | Patients achieved a HbA1C of <7% (patients with T2DM [4]; 24 weeks, sitagliptin 100 mg daily plus pioglitazone versus pioglitazone alone) | Mean HbA1C reduction (patients with T2DM [4]; sitagliptin 100 mg daily added to pioglitazone (30 or 45 mg daily), 24 weeks, mean HbA1C 8.1%) | Rates of hypoglycemia or weight gain relative to pioglitazone alone (patients with T2DM [4]; sitagliptin added to pioglitazone) |
| --- | --- | --- | --- | --- | --- | --- | --- | --- | --- | --- |
| ≤ 6 h | CN(C)C(=N)N=C(N)N [Conventional Metformin, Metformin] | – | – | – | – | – | – | – | – | – |
| – | N[C@@H](CC(=O)N1CCn2c(nnc2C(F)(F)F)C1)Cc1cc(F)c(F)cc1F [Sitagliptin] | no significant weight gain | significantly reduced | no significant increase | 47% | significant reductions | 0.65% | 45.4% | 0.7% | not associated with increased rates |
